Measured values taken from patent US20230391868A1, “COMPOSITIONS FOR AND METHODS OF TREATING CANCER” (The George Washington University, priority 2022, published 2023).

Experiments:
SIRPα [1] = assay: SIRPα gene expression in THP1-derived macrophages by qRT-PCR; format: cell-based, human; settings: qRT-PCR (FIG. 2A)
Protocol: Macrophages were polarized to M1-like phenotype using 50 ng/mL of interferon gamma (IFNγ, 575306, Biolegend) and 100 ng/mL of bacterial lipopolysaccharide (LPS, L2880, Sigma Aldrich, St. Louis, MO) for 24 hours. To polarize macrophages towards the M2-like phenotype, macrophages were stimulated with 20 ng/mL of IL-4 (214-14, PeproTech) and 20 ng/mL of IL-13 (575904, Biolegend). THP1 monocytes were treated with 5 ng/mL of phorbol 12-myristate 13-acetate (PMA) to induce differentiation into macrophages. Once converted to macrophages, media was replaced to remove PMA prior to treatment and/or polarization. Polarization towards M1 and M2 phenotypes was performed with respective recombinant human cytokines from PeproTech: 50 ng/mL of IFNγ (300-02), 20 ng/mL IL-4 (200-04), and 20 ng/mL IL-13 (200-13). 100 ng/mL LPS was also used to polarize toward the M1 phenotype. 3. In vivo Studies.
qRT-PCR: Total RNA was extracted from cells using the Trizol reagent according to manufacturer's instructions (ThermoFisher Scientific, 15596018). […] RNA was quantified using a NanoDrop One Spectrophotometer (ThermoFisher Scientific). […] Target mRNA was quantified using MyIQ single-color real-time PCR detection system from Bio-Rad (Bio-Rad, Hercules, CA) and iQ SYBR green Supermix (Bio-Rad, 1708882). […] Quantification is expressed in arbitrary units and target mRNA levels were normalized to R-actin expression.

SIRPα [2] = assay: Cell surface SIRPα expression by flow cytometry; format: cell-based, mouse; settings: A31A7 macrophages and BMDMs; flow cytometry (FIG. 2C)
Protocol: Cell surface expression of CD47 in melanoma cells was evaluated using PE anti-mouse CD47 (clone miap301, […], Biolegend), PE anti-human CD47 (clone CC2C6, 323108, Biolegend), and their respective isotype controls (400508, 400113, respectively, Biolegend). SIRPα was evaluated using APC anti-mouse CD172a (SIRPα) antibody (clone P84, 144014, Biolegend) or APC anti-human CD172a/b (SIRPα/β) antibody (clone SE5A5, 323810, Biolegend) and their respective isotype controls (400411, Biolegend).

primary mouse BMDMs = assay: Pro-phagocytic signal gene expression in BMDMs; format: cell-based
Protocol: Bone marrow-derived macrophages were isolated from the femurs and tibias of wild-type C57/Bl6, HDAC6 knockout (C57BL/6J-Hdac6em2Lutzy/J, 029318, Jackson Laboratory), or UBC-GFP (C57BL/6-Tg(UBC-GFP)30Scha/J, 004353, Jackson Laboratory). Isolated bone marrow cells were cultured in RPMI 1640 complete medium with 10% FBS, 1% NEAA, and 1% penicillin-streptomycin in 5% CO2 at 37° C. Medium was supplemented with murine recombinant M-CSF (20 ng/mL, 576404, Biolegend) to differentiate monocytes into macrophages. Three days after bone marrow isolation, undifferentiated and floating cells were washed with PBS and replaced with fresh RPMI media. A3.1A7 cells and BMDMs were pretreated with 5 μM of HDAC6 inhibitor NextA or vehicle prior to adding polarizing cytokines.
qRT-PCR: Total RNA was extracted from cells using the Trizol reagent according to manufacturer's instructions (ThermoFisher Scientific, 15596018). Samples were then processed immediately or stored at −80° C. RNA was quantified using a NanoDrop One Spectrophotometer (ThermoFisher Scientific). The 260/280 ratios were routinely over 1.8. […] Target mRNA was quantified using MyIQ single-color real-time PCR detection system from Bio-Rad (Bio-Rad, Hercules, CA) and iQ SYBR green Supermix (Bio-Rad, 1708882). […] Quantification is expressed in arbitrary units and target mRNA levels were normalized to R-actin expression.

SM1 melanoma tumors = assay: SM1 melanoma tumor growth in vivo; parameters: species or system mouse; settings: SM1-bearing C57/Bl6 mice, NextA 20 mg/kg intraperitoneally, anti-CD47 100 μg intratumorally, every other day, vs vehicle control
Protocol: Animal experiments were performed in accordance with protocol A354 approved by the Institutional Care and Use Committee (IACUC) at The George Washington University. Female C57BL/6 mice (4-6 weeks old) were purchased from Charles River Laboratories (Wilmington, Massachusetts, USA). Mice were injected subcutaneously in their right flank with 10^6 in vivo passaged SM1 melanoma cells suspended in 100 μL of PBS (Corning, 21-040-CV) at day 0. Cages were randomly assigned to different treatment groups, and mice were treated intraperitoneally with 100 μL of vehicle control or NextA at 20 mg/kg every other day when tumors became palpable, which was a week after tumor implantation.
Six days after the first NextA treatment, mice were also treated intratumorally with 100 μg of αCD47 every two days (clone miap301, BE0270, BioXCell, Lebanon, NH, USA) until the end of the study. Tumor measurements were taken every other day using caliper measurements and calculated using the formula L×W^2/2. All animals were routinely monitored for early signs of toxicity. […]
First, C57/Bl6 mice were inoculated with SM1 melanoma cells (n=15 mice per group). […] The concentrations of NextA and anti-CD47 were determined by performing drug and antibody titrations. Tumor growth was monitored every other day from when the tumors became palpable until the experimental endpoint.

Q: For `CCCCN(Cc1ccc(C(=O)NO)cc1)C(=O)Nc1ccccc1` [NextA, Nexturastat A], which “SIRPα expression at the transcriptional level” value (SIRPα [1]) is on record?
A: The value was “significantly downregulated”.

Q: And the “SIRPα expression on the cell surface” value (SIRPα [2])?
A: The value was “significantly decreased”.

Q: And the “expression of Lrp1, Cd36, and Mfge8” value (primary mouse BMDMs)?
A: Its value is “significant increase”.

Q: What about the tumor growth (SM1 melanoma tumors) of the same molecule?
A: The tumor growth was “moderately decreased tumor growth”.

Q: And the tumor growth (SM1 melanoma tumors; listed as Nexturastat A)?
A: The tumor growth was “enhanced the antitumor efficacy of anti-CD47”.
